Data as given in the supplement of paper PMC10307832.

Legend:
Assay in all cases: relative viability (nuclei count vs DMSO), 5 days (fraction); higher = more cells survive
AZD5582 + Lapatinib = compound: C[C@@H](C(=O)N[C@@H](C1CCCCC1)C(=O)N2CCC[C@H]2C(=O)N[C@@H]3[C@@H](CC4=CC=CC=C34)OCC#CC#CCO[C@@H]5CC6=CC=CC=C6[C@@H]5NC(=O)[C@@H]7CCCN7C(=O)[C@H](C8CCCCC8)NC(=O)[C@H](C)NC)NC [AZD5582] + CS(=O)(=O)CCNCc1ccc(-c2ccc3ncnc(Nc4ccc(OCc5cccc(F)c5)c(Cl)c4)c3c2)o1 [Lapatinib] (partner 2 µM)
Summary of the method: (§1)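 For relative viability, nuclei counts in treated wells were divided by those in vehicle wells. Lung cancer cell lines had been pin-tool dosed in 1536-well plates the day after seeding and cultured for 5 days, then fixed and stained in one step (final 0.05% Triton X-100, 1% formaldehyde, 1 ug/ml Hoechst) and imaged at 4×. Doses were one drug alone or a fixed anchor-drug dose plus five library-drug doses (not always all listed) in √10 steps, and values are duplicate-plate medians.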

AZD5582 + Olaparib = compound: C[C@@H](C(=O)N[C@@H](C1CCCCC1)C(=O)N2CCC[C@H]2C(=O)N[C@@H]3[C@@H](CC4=CC=CC=C34)OCC#CC#CCO[C@@H]5CC6=CC=CC=C6[C@@H]5NC(=O)[C@@H]7CCCN7C(=O)[C@H](C8CCCCC8)NC(=O)[C@H](C)NC)NC [AZD5582] + O=C(c1cc(Cc2n[nH]c(=O)c3ccccc23)ccc1F)N1CCN(C(=O)C2CC2)CC1 [Olaparib] (partner 8 µM)
Summary of the method: as §1

AZD5582 + Bortezomib = compound: C[C@@H](C(=O)N[C@@H](C1CCCCC1)C(=O)N2CCC[C@H]2C(=O)N[C@@H]3[C@@H](CC4=CC=CC=C34)OCC#CC#CCO[C@@H]5CC6=CC=CC=C6[C@@H]5NC(=O)[C@@H]7CCCN7C(=O)[C@H](C8CCCCC8)NC(=O)[C@H](C)NC)NC [AZD5582] + CC(C)C[C@H](NC(=O)[C@H](Cc1ccccc1)NC(=O)c1cnccn1)B(O)O [Bortezomib] (partner 0.002 µM)
Summary of the method: as §1

AZD5582 + Tozasertib = compound: C[C@@H](C(=O)N[C@@H](C1CCCCC1)C(=O)N2CCC[C@H]2C(=O)N[C@@H]3[C@@H](CC4=CC=CC=C34)OCC#CC#CCO[C@@H]5CC6=CC=CC=C6[C@@H]5NC(=O)[C@@H]7CCCN7C(=O)[C@H](C8CCCCC8)NC(=O)[C@H](C)NC)NC [AZD5582] + Cc1cc(Nc2cc(N3CCN(C)CC3)nc(Sc3ccc(NC(=O)C4CC4)cc3)n2)n[nH]1 [Tozasertib] (partner 0.1 µM)
Summary of the method: as §1

AZD5582 + Linsitinib = compound: C[C@@H](C(=O)N[C@@H](C1CCCCC1)C(=O)N2CCC[C@H]2C(=O)N[C@@H]3[C@@H](CC4=CC=CC=C34)OCC#CC#CCO[C@@H]5CC6=CC=CC=C6[C@@H]5NC(=O)[C@@H]7CCCN7C(=O)[C@H](C8CCCCC8)NC(=O)[C@H](C)NC)NC [AZD5582] + C[C@]1(O)C[C@@H](c2nc(-c3ccc4ccc(-c5ccccc5)nc4c3)c3c(N)nccn32)C1 [Linsitinib] (partner 1 µM)
Summary of the method: as §1

| Cell Line | relative viability (AZD5582 + Lapatinib; first compound 0.001581 µM) | relative viability (AZD5582 + Lapatinib; first compound 0.005 µM) | relative viability (AZD5582 + Lapatinib; first compound 0.01581 µM) | relative viability (AZD5582 + Lapatinib; first compound 0.05 µM) | relative viability (AZD5582 + Olaparib; first compound 0.001581 µM) | relative viability (AZD5582 + Olaparib; first compound 0.005 µM) | relative viability (AZD5582 + Olaparib; first compound 0.01581 µM) | relative viability (AZD5582 + Olaparib; first compound 0.05 µM) | relative viability (AZD5582 + Bortezomib; first compound 0.001581 µM) | relative viability (AZD5582 + Bortezomib; first compound 0.005 µM) | relative viability (AZD5582 + Bortezomib; first compound 0.01581 µM) | relative viability (AZD5582 + Bortezomib; first compound 0.05 µM) | relative viability (AZD5582 + Tozasertib; first compound 0.001581 µM) | relative viability (AZD5582 + Tozasertib; first compound 0.005 µM) | relative viability (AZD5582 + Tozasertib; first compound 0.01581 µM) | relative viability (AZD5582 + Tozasertib; first compound 0.05 µM) | relative viability (AZD5582 + Linsitinib; first compound 0.001581 µM) | relative viability (AZD5582 + Linsitinib; first compound 0.005 µM) | relative viability (AZD5582 + Linsitinib; first compound 0.01581 µM) | relative viability (AZD5582 + Linsitinib; first compound 0.05 µM) |
| --- | --- | --- | --- | --- | --- | --- | --- | --- | --- | --- | --- | --- | --- | --- | --- | --- | --- | --- | --- | --- |
| LC-2-ad | 0.966 | 1.07 | 0.888 | 0.904 | 0.68 | 0.715 | 0.659 | 0.805 | 1.05 | 1.14 | 0.938 | 1.04 | 0.363 | 0.493 | 0.418 | 0.4 | 0.916 | 0.938 | 0.911 | 0.97 |
| ABC-1 | 0.932 | 1.19 | 1.01 | 1.44 | 0.845 | 0.724 | 0.891 | 0.976 | 0.282 | 0.275 | 0.291 | 0.261 | 0.157 | 0.169 | 0.196 | 0.166 | 0.766 | 0.958 | 0.913 | 0.971 |
| NCI-H2405 | 1.11 | 1.21 | – | 1.01 | 0.83 | 0.875 | 0.833 | 0.842 | 0.972 | 1.01 | 0.88 | 0.947 | 0.74 | 0.813 | 0.708 | 0.85 | 0.954 | 0.989 | – | 1 |
| NCI-H1355 | 0.945 | 0.887 | 0.952 | 0.718 | 0.68 | 0.728 | 0.658 | 0.774 | 1.02 | 1.14 | 1.11 | 1.11 | 0.488 | 0.558 | 0.52 | 0.6 | 0.774 | 0.829 | 0.788 | 0.96 |
| NCI-H2085 | 0.667 | 0.818 | 0.654 | 0.731 | 0.842 | 0.903 | 0.726 | 0.733 | 0.953 | 1.19 | 0.933 | 1.17 | 0.716 | 0.708 | 0.798 | 0.606 | 0.755 | 0.9 | 0.891 | 0.938 |
| HOP-62 | 0.748 | 1.06 | 1.02 | 0.958 | 0.234 | 0.287 | 0.252 | 0.232 | 0.652 | 0.527 | 0.691 | 0.566 | 0.318 | 0.339 | 0.35 | 0.32 | 0.654 | 1 | 0.966 | 1.09 |
| NCI-H2126 | 0.845 | 0.854 | 0.719 | 0.75 | 0.897 | 0.868 | 0.861 | 0.745 | 1.08 | 1.1 | 1.01 | 1.05 | 0.779 | 0.698 | 0.806 | 0.573 | 0.666 | 0.709 | 0.715 | 0.745 |
| LXF-289 | 0.895 | 0.929 | 0.823 | 0.922 | 0.98 | 0.995 | 0.953 | 1.02 | 0.985 | 1.03 | 0.987 | 1.05 | 0.195 | 0.192 | 0.18 | 0.191 | 0.924 | 0.936 | 0.959 | 0.998 |
| HCC-366 | 0.936 | 1.05 | 0.961 | 1.08 | 0.292 | 0.428 | 0.353 | 0.44 | 0.982 | 1.1 | 1.01 | 1.19 | 0.0633 | 0.134 | – | 0.155 | 0.7 | 0.754 | 0.622 | 0.822 |
| RERF-LC-KJ | 0.732 | 0.748 | 0.8 | 0.83 | – | – | 0.852 | 0.691 | – | 0.42 | 1.11 | 0.654 | – | – | 0.431 | 0.259 | 0.525 | 0.481 | 0.879 | 0.464 |
| NCI-H661 | 0.38 | 0.561 | 0.53 | 0.716 | 0.7 | 0.758 | 0.787 | 0.737 | 0.752 | 0.927 | 0.702 | 0.921 | 0.361 | 0.368 | 0.389 | 0.358 | 0.469 | 0.552 | 0.58 | 0.682 |
| COR-L23 | 0.982 | 1.08 | 1.07 | 1.1 | 0.307 | 0.378 | 0.32 | 0.329 | 0.942 | 1.02 | 1.07 | 1.09 | 0.187 | 0.246 | 0.257 | 0.241 | 0.937 | 0.957 | 0.913 | 1.16 |
| HCC-44 | 0.754 | 0.916 | 1.11 | 0.467 | 0.942 | 0.958 | 0.949 | 0.903 | 0.711 | 0.722 | 0.918 | 0.553 | 0.482 | 0.642 | 0.798 | 0.324 | 0.589 | 0.558 | 0.616 | 0.432 |
